Converted amounts (≈) assume the structure as drawn.
Tests used:
[1] = test system: M. tuberculosis transformed with luxABCDE; assay: microbe, parasite or virus in culture; format: cell-based, Mycobacterium tuberculosis; details: for MBC: Mycobacterium tuberculosis, 168 h, ≥99% reduction in luminescence, read-out: MBC99 Day 7 (Lux Assay) MBC
[2] = test system: non-replicating cultures of M. tuberculosis H37Rv transformed with lux ABCDE; assay: microbe, parasite or virus in culture; format: cell-based, Mycobacterium tuberculosis; details: for MIC / MIC90: Mycobacterium tuberculosis, H37RV, ≥90% reduction in luminescence, read-out: MIC90 LORA; for MIC90 LORA/MABA: ratio of LORA MIC90 to MABA MIC90

SMILES | MBC [1] | MIC90 LORA Rel to RMP [2] | MIC [2] | MIC90 LORA/MABA [2] | MIC90 [2] | MBC99 Day 7 (Lux Assay) MBC Rel to RMP [1]
CO[C@H]1/C=C/O[C@@]2(C)Oc3c(C)c(O)c4c(=O)c(c5oc6cc(N7CCN(C(=O)C(C)(C)C)CC7)cc(OCc7ccc(CN8CCOCC8)cc7)c6nc-5c4c3C2=O)NC(=O)/C(C)=C\C=C\[C@H](C)[C@H](O)[C@@H](C)[C@@H](O)[C@@H](C)[C@H](OC(C)=O)[C@@H]1C [Compound 17f, (7S,9E,11S,12R,13S,14R,15R,16R,17S,18S,19E,21Z)-30-[4-(2,2-Dimethylpropanoyl)-piperazin-1-yl]-2,15,17-trihydroxy-11-methoxy-3,7,12,14,16,18,22-heptamethyl-32-({4-[(morpholin-4-yl)methyl]phenyl}methoxy)-6,23,37-trioxo-8,27,38-trioxa-24,34-diazahexacyclo[23.11.1.1^4,7.0^5,36.0^26,35.0^28,33]octatriaconta-1(36)2,4,9,19,21,25,28,30,32,34-undecaen-13-yl acetate] | > 0.1 µM | 1.8 | 0.369 µM | 14 | – | –
CCC(=O)N1CCN(c2cc(OCc3ccc(CN4CCOCC4)cc3)c3nc4c5c6c7c(C)c(O)c5c(=O)c(c-4oc3c2)NC(=O)/C(C)=C\C=C\[C@H](C)[C@H](O)[C@@H](C)[C@@H](O)[C@@H](C)[C@H](OC(C)=O)[C@H](C)[C@@H](OC)/C=C/O[C@@](C)(O7)C6=O)CC1 [Compound 17g, (7S,9E,11S,12R,13S,14R,15R,16R,17S,18S,19E,21Z)-2,15,17-Trihydroxy-11-methoxy-3,7,12,14,16,18,22-heptamethyl-32-({4-[(morpholin-4-yl)methyl]phenyl}methoxy)-6,23,37-trioxo-30-(4-propanoylpiperazin-1-yl)-8,27,38-trioxa-24,34-diazahexacyclo-[23.11.1.1^4,7.0^5,36.0^26,35.0^28,33]octatriaconta-1(36)2,4,9,19,21,25,28,30,32,34-undecaen-13-yl acetate] | > 0.1 µM | 0.3 | – | 5.4 | 0.065 µM | –
CO[C@H]1/C=C/O[C@@]2(C)Oc3c(C)c(O)c4c(=O)c(c5oc6cc(N7CCN(C8CCN(C)CC8)CC7)cc(OCc7ccc(CN8CCOCC8)cc7)c6nc-5c4c3C2=O)NC(=O)/C(C)=C\C=C\[C@H](C)[C@H](O)[C@@H](C)[C@@H](O)[C@@H](C)[C@H](OC(C)=O)[C@@H]1C [Compound 17h, (7S,9E,11S,12R,13S,14R,15R,16R,17S,18S,19E,21Z)-2,15,17-trihydroxy-11-methoxy-3,7,12,14,16,18,22-heptamethyl-30-[4-(1-methylpiperidin-4-yl)piperazin-1-yl]-32-{[4-(morpholin-4-ylmethyl)phenyl]methoxy}-6,23,37-trioxo-8,27,38-trioxa-24,34-diazahexacyclo-[23.11.1.1^4,7.0^5,36.0^26,35.0^28,33]octatriaconta-1,3,5(36)9,19,21,25,28,30,32,34-undecaen-13-yl acetate] | > 0.1 µM | 12 | – | 9.0 | 0.318 µM | –
CO[C@H]1/C=C/O[C@@]2(C)Oc3c(C)c(O)c4c(=O)c(c5oc6cc(N7CCN(CC(=O)O)CC7)cc(OCc7ccc(CN8CCOCC8)cc7)c6nc-5c4c3C2=O)NC(=O)/C(C)=C\C=C\[C@H](C)[C@H](O)[C@@H](C)[C@@H](O)[C@@H](C)[C@H](OC(C)=O)[C@@H]1C [Compound 17i] | > 0.1 µM | 9.2 | 0.247 µM (≈ 0.28 µg/mL) | 9.5 | – | –
CO[C@H]1/C=C/O[C@@]2(C)Oc3c(C)c(O)c4c(=O)c(c5oc6cc(N7CCS(=O)(=O)CC7)cc(OCc7ccc(CN8CCOCC8)cc7)c6nc-5c4c3C2=O)NC(=O)/C(C)=C\C=C\[C@H](C)[C@H](O)[C@@H](C)[C@@H](O)[C@@H](C)[C@H](OC(C)=O)[C@@H]1C [Compound 17j, (7S,9E,11S,12R,13S,14R,15R,16R,17S,18S,19E,21Z)-30-(1,1-dioxothiomorpholin-4-yl)-2,15,17-trihydroxy-11-methoxy-3,7,12,14,16,18,22-heptamethyl-32-([4-(morpholin-4-ylmethyl)phenyl]methoxy)-6,23,37-trioxo-8,27,38-trioxa-24,34-diazahexacyclo-[23.11.1.1^4,7.0^5,36.0^26,35.0^28,33]octatriaconta-1,3,5(36)9,19,21,25,28,30,32,34-undecaen-13-yl acetate] | > 0.1 µM | – | > 0.02 µM | – | – | –
CO[C@H]1/C=C/O[C@@]2(C)Oc3c(C)c(O)c4c(=O)c(c5oc6cc(N7CCC(C(=O)O)CC7)cc(OCc7ccc(CN8CCOCC8)cc7)c6nc-5c4c3C2=O)NC(=O)/C(C)=C\C=C\[C@H](C)[C@H](O)[C@@H](C)[C@@H](O)[C@@H](C)[C@H](OC(C)=O)[C@@H]1C [Compound 17k] | > 0.1 µM | – | > 0.02 µM | – | – | –
CO[C@H]1/C=C/O[C@@]2(C)Oc3c(C)c(O)c4c(=O)c(c5oc6cc(N7CCN(C(=O)c8ccccc8)CC7)cc(OCc7ccc(CN8CCOCC8)cc7)c6nc-5c4c3C2=O)NC(=O)/C(C)=C\C=C\[C@H](C)[C@H](O)[C@@H](C)[C@@H](O)[C@@H](C)[C@H](OC(C)=O)[C@@H]1C [Compound 17m, (7S,9E,11S,12R,13S,14R,15R,16R,17S,18S,19E,21Z)-30-(4-benzoylpiperazin-1-yl)-2,15,17-trihydroxy-1-methoxy-3,7,12,14,16,18,22-heptamethyl-32-{[4-(morpholin-4-ylmethyl)phenyl]methoxy}-6,23,37-trioxo-8,27,38-trioxa-24,34-diazahexacyclo-[23.11.1.1^4,7.0^5,36.0^26,35.0^28,33]octatriaconta-1,3,5(36)9,19,21,25,28,30,32,34-undecaen-13-yl acetate] | 0.217 µM | 1.4 | – | 4.2 | 0.072 µM | 0.48
CO[C@H]1/C=C/O[C@@]2(C)Oc3c(C)c(O)c4c(=O)c(c5oc6cc(N7CCN(C(=O)c8ccncc8)CC7)cc(OCc7ccc(CN8CCOCC8)cc7)c6nc-5c4c3C2=O)NC(=O)/C(C)=C\C=C\[C@H](C)[C@H](O)[C@@H](C)[C@@H](O)[C@@H](C)[C@H](OC(C)=O)[C@@H]1C [Compound 17n, 7S,9E,11S,12R,13S,14R,15R,16R,17S,18S,19E,21Z)-2,15,17-trihydroxy-11-methoxy-3,7,12,14,16,18,22-heptamethyl-32-{[4-(morpholin-4-ylmethyl)phenyl]methoxy}-6,23,37-trioxo-30-{4-[(pyridin-4-yl)carbonyl]piperazin-1-yl}-8,27,38-trioxa-24,34-diazahexacyclo[23.11.1.1^4,7.0^5,36.0^26,35.0^28,33]octatriaconta-1,3,5(36)9,19,21,25,28,30,32,34-undecaen-13-yl acetate] | 0.315 µM | 4.7 | – | 3.2 | 0.235 µM | 0.70
